# PubChem BioAssay AID434987 (Southern Research Specialized Biocontainment Screening …, 2010)
# The source made the active and inactive calls. How the calls were made is not given here.
# Test system: M. tuberculosis H37Rv growth inhibition with meropenem
# Test: dose response, H37Rv, with and without meropenem (AID 434987);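 further: growth over 7 days at 37 °C before Alamar Blue read on day 9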
# [1] = M. tuberculosis H37Rv growth inhibition, measured here: IC50 without meropenem
# [2] = M. tuberculosis H37Rv growth inhibition, measured here: IC90 without meropenem
# [3] = measured here: IC90 with meropenem
Compound,IC50,IC50 [1],IC90 [2],IC90 [3]
Cc1ccc(NC(=O)CCS(=O)(=O)c2cccc3nonc23)cc1,16.8 µM (inactive),31.1 µM,> 100 µM,> 100 µM
CCCC(=O)N1CCN(c2ccc(NC(=S)NC(=O)CC)cc2)CC1,62.1 µM (inactive),> 100 µM,> 100 µM,> 100 µM
O=C(Oc1oc(-c2ccco2)nc1C=Nc1ccc(Cl)cc1)c1ccco1,15 µM,> 100 µM,> 100 µM,> 100 µM
COc1ccc(C(=O)NC(=S)NC(C)(C)C)cc1Br,> 100 µM (inactive),> 100 µM,> 100 µM,> 100 µM
O=c1oc(CCCO)cc2ccc(C#Cc3ccsc3)cc12,> 100 µM (inactive),> 100 µM,> 100 µM,> 100 µM
CCc1cc2c(-c3ccccc3)cc(=O)oc2cc1OC(C)C(C)=O (stereo not drawn),45.6 µM (inactive),47.4 µM,53.8 µM,48.5 µM
COc1ccccc1CNC(=O)c1cc2c(C)nn(Cc3ccc(F)cc3)c2s1,> 100 µM (inactive),> 100 µM,> 100 µM,> 100 µM
FC(F)Oc1ccccc1C1CC(c2ccc(Br)s2)Nc2ncnn21 (stereo not drawn),> 100 µM (inactive),> 100 µM,> 100 µM,> 100 µM
O=C(Nc1nc(-c2ccc(F)c(F)c2)cs1)c1cnccn1,14.6 µM,> 100 µM,> 100 µM,> 100 µM
CCOc1ccc2cc(S(=O)(=O)N3CCCCC3)ccc2c1,> 100 µM (inactive),> 100 µM,> 100 µM,> 100 µM
Cc1cc(C)c(OCC(=O)Nc2nc3ccccc3[nH]2)c(C)c1,1.22 µM,22.1 µM,> 100 µM,65.2 µM
Nc1nc2ccccc2n1C(=O)c1cccs1,5.84 µM,42.8 µM,> 100 µM,> 100 µM
O=C(COc1ccc2ccccc2c1)Nc1nc2ccccc2[nH]1,5.83 µM,62 µM,> 100 µM,> 100 µM
CC(C)N1CCc2c(sc(NC(=O)c3cc(-c4cccs4)nc4ccccc34)c2C(N)=O)C1,13.7 µM (inactive),24.8 µM,> 100 µM,> 100 µM
COC(=O)c1cc(C)[nH]c2c(C)cc3nc4ccccc4c3c12,> 100 µM (inactive),> 100 µM,> 100 µM,> 100 µM
O=C(Nc1ccc(OC(=O)c2ccccc2)c(-c2nc3ccccc3s2)c1)c1ccccc1,> 100 µM (inactive),> 100 µM,> 100 µM,> 100 µM
O=S1(=O)CCO[C@H]2Cc3ccccc3[C@H]2N1Cc1ccc(F)cc1,> 100 µM (inactive),> 100 µM,> 100 µM,> 100 µM
COc1cc(C(=O)NNC(=O)c2cc(-c3ccccc3)n[nH]2)cc(OC)c1C,19.7 µM,> 100 µM,> 100 µM,> 50 µM
COc1ccc(-c2cc(C(F)F)nc(-n3nc(C)cc3C)n2)cc1,24.3 µM (inactive),47.4 µM,> 100 µM,54.1 µM

Compound,IC50,IC50 [1],IC90 [2],IC90 [3]
CC(C)Oc1ccc(N2CC(C(=O)Nc3ccccc3F)CC2=O)cc1 (stereo not drawn),56.8 µM (inactive),> 100 µM,> 100 µM,> 100 µM
O=C(C1=C[C@@H](c2ccc(Br)cc2)C[C@@H](OCc2ccc(CO)cc2)O1)N1CCN(Cc2ccc3c(c2)OCO3)CC1,79.3 µM (inactive),> 100 µM,> 100 µM,> 100 µM
CC(=O)Nc1ccc(C(=O)N(C2=NC(C)CS2)c2ccc(Cl)cc2)cc1 (stereo not drawn),29.8 µM (inactive),44.1 µM,> 100 µM,> 100 µM
CCOc1nnnc2c1sc1nc(N3CCOCC3)c3c(c12)CCCC3,> 100 µM (inactive),> 100 µM,> 100 µM,> 100 µM
O=C1COc2ccc(C(=O)/C=C/c3ccccc3)cc2N1,9.75 µM,25.6 µM,> 50 µM,12.2 µM
Cc1ccc(OCC(=O)Nc2ccc3c4c(cccc24)CC3)c(C)c1,1.71 µM,> 100 µM,> 100 µM,> 100 µM
COc1cc2c(C(=O)N3CCN(c4ccccc4C)CC3)c(C)oc2cc1Br,> 100 µM (inactive),> 100 µM,> 100 µM,> 100 µM
Cc1nn(C)c(C)c1C1C(C#N)=C(N)OC2=C1C(=O)CCC2 (stereo not drawn),> 100 µM (inactive),> 100 µM,> 100 µM,> 100 µM
CCOC(=O)Cn1c(C)cc(=O)c2cccc(C)c21,26.4 µM,> 100 µM,> 100 µM,> 100 µM
CCc1ccc2nc(/N=C(\N)NC(=O)c3ccccc3)nc(C)c2c1,1.02 µM,22.4 µM,> 50 µM,> 100 µM
Cc1ccccc1Cn1cc(NC(=O)CSc2nc3c(c(C(F)(F)F)n2)CCc2ccccc2-3)cn1,26.4 µM,> 100 µM,> 100 µM,> 100 µM
CCCCCn1c(=O)c(C(=O)Nc2cnccn2)c(O)c2ccccc21,10.8 µM (inactive),13.7 µM,16.4 µM,13.8 µM
CC(=O)COc1ccc2c3c(c(=O)oc2c1C)CCCCC3,> 100 µM (inactive),> 100 µM,> 100 µM,> 100 µM
COCCOC(=O)c1c(C)oc2ccc(OCc3cc(C(=O)OC)oc3C)cc12,> 100 µM (inactive),> 100 µM,> 100 µM,> 100 µM
Cc1cccc(NC(=O)c2cc3ccccc3c(=O)o2)n1,37.9 µM,> 100 µM,> 100 µM,> 100 µM
COCCNC(=S)N/N=C(\C)c1cccc(OC)c1,17.8 µM,47.1 µM,> 100 µM,> 100 µM
COc1cccc(-n2c([S-])c(C(=O)Nc3ccc(S(=O)(=O)N4CCOCC4)cc3)[n+]3cc(C(N)=O)ccc23)c1,> 100 µM (inactive),> 100 µM,> 100 µM,> 100 µM
Cc1cc2ccccc2n1CCNC(=O)COc1ccccc1,30.1 µM (inactive),44.7 µM,60.3 µM,42.8 µM
Cc1cc(Br)cc2c(C(=O)NCC3CCCO3)cc(-c3ccccc3)nc12 (stereo not drawn),95.6 µM (inactive),> 100 µM,> 100 µM,> 100 µM

Compound,IC50,IC50 [1],IC90 [2],IC90 [3]
CC1CN(C(=S)NC(=O)c2cccc([N+](=O)[O-])c2)CC(C)O1 (stereo not drawn),11.8 µM,42.3 µM,> 100 µM,> 100 µM
COc1ccc2ccccc2c1/C=N/NC(=O)c1cccc(Br)c1,> 100 µM (inactive),> 100 µM,> 100 µM,> 100 µM
CCN(CC)C(=O)C1CCCN(c2ccc([N+](=O)[O-])cc2/C=N/NC(=O)c2cccc(O)c2)C1 (stereo not drawn),48.1 µM (inactive),47.1 µM,70.6 µM,55.3 µM
Cc1ccc(C(=O)Nc2ccc(N3CCN(C(=O)c4cccs4)CC3)cc2)c(Cl)c1,> 100 µM (inactive),> 100 µM,> 100 µM,> 100 µM
CC(=O)NC(=S)Nc1ccc(NC(=O)c2cccnc2Cl)cc1,> 100 µM (inactive),> 100 µM,> 100 µM,> 100 µM
COc1ccc(OC)c(C2CC(c3c(-c4ccccc4)c4cc(Cl)ccc4[nH]c3=O)=NN2S(C)(=O)=O)c1 (stereo not drawn),> 100 µM (inactive),> 100 µM,> 100 µM,> 100 µM
CC1CN(C2CCCCC2)c2nc3c(c(=O)[nH]c(=O)n3C)n2C1 (stereo not drawn),> 100 µM (inactive),> 100 µM,> 100 µM,> 100 µM
S=C(NNc1ccc2ccccc2c1)NC1CCCCC1,8.86 µM (inactive),20.4 µM,46.7 µM,41.3 µM
CCOc1ccc(S(=O)(=O)N(C(=O)c2ccco2)c2cc3sc(=O)oc3c3ccccc23)cc1,44.7 µM (inactive),41.8 µM,45.1 µM,46.9 µM
O=C(N/N=C/c1ccc(-c2cccc(C(F)(F)F)c2)o1)c1ccccc1O,32.8 µM,> 100 µM,> 100 µM,> 100 µM
CSc1ccc(/C=C/C(=O)NC23CC4CC(CC(C4)C2)C3)cc1,5.06 µM,27.2 µM,> 100 µM,16.1 µM
CCOC(=O)[C@H]1[C@H]2COc3ccc(Br)cc3[C@@H]2N2C(=O)c3cc(OC)c(OC)cc3NC(=O)[C@@]12C,> 50 µM (inactive),80.9 µM,> 100 µM,> 50 µM
O=C(CCSc1nnc(-c2ccncc2)o1)Nc1ccccc1Cl,> 100 µM (inactive),> 100 µM,> 100 µM,> 100 µM
Fc1ccc(C2Nc3cccc4cccc(c34)N2)cc1,> 100 µM (inactive),> 100 µM,> 100 µM,> 100 µM
Cc1ccc(CN2C(=O)N/C(=C\c3ccc(-c4ccc(C(=O)O)cc4C)o3)C2=O)cc1,5.14 µM,23.8 µM,> 100 µM,14.7 µM
CC#CC[N+](C)(C)CCCCCCCCCCCC,49 µM (inactive),72.8 µM,> 100 µM,> 100 µM
Cc1c(OCc2ccc(C(=O)O)cc2)ccc2c(-c3ccccc3)cc(=O)oc12,1.42 µM,46.2 µM,96.7 µM,2.09 µM
N=C1C(c2nc3ccccc3[nH]2)=C(O)CN1c1ccc(F)cc1,7.73 µM,> 100 µM,> 100 µM,> 100 µM
O=C(Nc1ccc(F)cc1)c1sc2cc(C(F)(F)F)cnc2c1-c1cccs1,> 100 µM (inactive),> 100 µM,> 100 µM,> 100 µM
